In data set [1] the test system is Mus musculus. Briefly: Anticonvulsant activity in Mus musculus albino (mouse) assessed as protection against subcutaneous strychnine-induced seizures at 300 mg/kg, ip after 4 hr. Also on record: dose 300 mg/kg. It counts as functional, organism-based.
Data set [2] deals with Mus musculus. Briefly: Anticonvulsant activity in Mus musculus albino (mouse) assessed as protection against subcutaneous pentylenetetrazole-induced seizures at 300 mg/kg, ip after 4 hr. It is filed as functional, organism-based. Also on record: dose 300 mg/kg.
Data set [3] relates to Mus musculus. Briefly: Anticonvulsant activity in Mus musculus albino (mouse) assessed as protection against subcutaneous strychnine-induced seizures at 300 mg/kg, ip after 0.5 hr. It counts as functional, organism-based. Also on record: dose 300 mg/kg.
The subject of data set [4] is Mus musculus. Briefly: Anticonvulsant activity in Mus musculus albino (mouse) assessed as protection against subcutaneous pentylenetetrazole-induced seizures at 300 mg/kg, ip after 0.5 hr. It is filed as functional, organism-based. Also on record: dose 300 mg/kg.
Data set [5] relates to Mus musculus. Briefly: Neurotoxicity in Mus musculus albino (mouse) assessed as motor impairment at 300 mg/kg, ip after 0.5 hr by rotorod test. Particulars: in vivo. It counts as toxicity, organism-based. Also on record: dose 300 mg/kg, route intraperitoneal. On the technique in general: Falling from the rotarod earlier than controls is read as motor impairment.
Data set [6] has as its system Mus musculus. Briefly: Neurotoxicity in Mus musculus albino (mouse) assessed as motor impairment at 300 mg/kg, ip after 4 hr by rotorod test. It is filed as toxicity, organism-based. Also on record: dose 300 mg/kg, route intraperitoneal. Particulars: in vivo.
Data set [7] concerns Mus musculus. Briefly: Anticonvulsant activity in ip dosed Mus musculus albino (mouse) assessed as protection against maximal electroshock-induced seizures after 0.5 hr. It is filed as functional. The following applies: read-out: MED.
Data set [8] has as its system Mus musculus. Description: Anticonvulsant activity in Mus musculus albino (mouse) assessed as protection against ip picrotoxin-induced seizures at 300 mg/kg, ip after 0.5 hr. It is filed as functional, organism-based. Also on record: dose 300 mg/kg.
Data set [9] relates to Mus musculus. Briefly: Anticonvulsant activity in Mus musculus albino (mouse) assessed as protection against ip picrotoxin-induced seizures at 300 mg/kg, ip after 4 hr. It counts as functional, organism-based. Also on record: dose 300 mg/kg.
Data set [10] in a line: Neurotoxicity in ip dosed Mus musculus albino (mouse) assessed as motor impairment after 0.5 hr by rotorod test. It is filed as toxicity, organism-based. Particulars: in vivo.
A short description of data set [11]: Neurotoxicity in ip dosed Mus musculus albino (mouse) assessed as motor impairment after 4 hr by rotorod test. It counts as toxicity, organism-based. The following applies: in vivo.
Data set [12] concerns Mus musculus. Briefly: Anticonvulsant activity in Mus musculus albino (mouse) assessed as protection against maximal electroshock-induced seizures at 300 mg/kg, ip after 0.5 hr. It counts as functional, organism-based. Also on record: dose 300 mg/kg. On the technique in general: Protection in the maximal electroshock model is a classic sign of anticonvulsant action.
Data set [13] concerns Mus musculus. Description: Anticonvulsant activity in ip dosed Mus musculus albino (mouse) assessed as protection against subcutaneous strychnine-induced seizures after 0.5 hr. It is filed as functional. Particulars: read-out: MED.
For data set [14], the system named is Mus musculus. Briefly: Anticonvulsant activity in ip dosed Mus musculus albino (mouse) assessed as protection against ip picrotoxin-induced seizures after 0.5 hr. It is filed as functional. The following applies: read-out: MED.
The test system of data set [15] is Mus musculus. Description: Anticonvulsant activity in ip dosed Mus musculus albino (mouse) assessed as protection against subcutaneous pentylenetetrazole-induced seizures after 4 hr. It is filed as functional. Particulars: read-out: MED.
The subject of data set [16] is Mus musculus. Description: Anticonvulsant activity in ip dosed Mus musculus albino (mouse) assessed as protection against ip picrotoxin-induced seizures after 4 hr. It is filed as functional. Particulars: read-out: MED.
Data set [17] has as its system Mus musculus. Briefly: Anticonvulsant activity in ip dosed Mus musculus albino (mouse) assessed as protection against subcutaneous pentylenetetrazole-induced seizures after 0.5 hr. It counts as functional. The following applies: read-out: MED.
Data set [18] concerns Mus musculus. Briefly: Anticonvulsant activity in ip dosed Mus musculus albino (mouse) assessed as protection against subcutaneous strychnine-induced seizures after 4 hr. Particulars: read-out: MED. It counts as functional.

Calls of active or inactive are those of the source. The calls are words filed in the database; no cut-off is given here.

As to `CCC1(C)CC(=O)NC1=O` (centres undefined) [ETHOSUXIMIDE], the result in the data set on Mus musculus [1], in the data set on Mus musculus [2], with Mus musculus [3], with Mus musculus [4], in the data set on Mus musculus [8] and in the data set on Mus musculus [9] was inactive. The Activity entry in the data set on Mus musculus [5] and in the data set with Mus musculus [6] was “Non-toxic” each time. For the same compound, in the data set on Mus musculus [7], the minimal effective dose was 300 mg/kg.

For the compound `O=C(CCCN1C(=O)c2ccccc2C1=O)Nc1ccc([N+](=O)[O-])cc1`, the MTD at 0.5 h in [10] was 100 mg/kg. Also, the outcome with Mus musculus [1], in the data set with Mus musculus [2], with Mus musculus [3], with Mus musculus [12], in the data set on Mus musculus [4] and in the data set on Mus musculus [8] was inactive. In addition, in the data set on Mus musculus [9], the outcome was inactive. In data set [11], the MTD at 4 h is 100 mg/kg.

As to `O=C(CCCN1C(=O)c2ccccc2C1=O)Nc1ccc(F)cc1F`, the outcome in the data set on Mus musculus [1], in the data set on Mus musculus [2], in the data set with Mus musculus [12], in the data set on Mus musculus [4] and in the data set on Mus musculus [9] was inactive. The minimal effective dose in the data set with Mus musculus [13] worked out at 100 mg/kg; in the data set on Mus musculus [14], 300 mg/kg. For the same compound, the Activity entry in the data set with Mus musculus [5] and in the data set with Mus musculus [6] was “Non-toxic” throughout.

Consider `Cc1cc(Cl)ccc1NC(=O)CCCN1C(=O)c2ccccc2C1=O`, for which the outcome with Mus musculus [1] and in the data set with Mus musculus [12] was inactive. In addition, the minimal effective dose in the data set on Mus musculus [15] was 300 mg/kg; in the data set with Mus musculus [13] it was 300 mg/kg; with Mus musculus [14], 100 mg/kg; in the data set with Mus musculus [16], 300 mg/kg; in the data set on Mus musculus [17] it was 100 mg/kg. In addition, the Activity entry with Mus musculus [5] and in the data set on Mus musculus [6] was “Non-toxic” each time.

In the case of `O=C(CCCN1C(=O)c2ccccc2C1=O)Nc1ccc(I)cc1`, the result in the data set on Mus musculus [1], with Mus musculus [2], in the data set with Mus musculus [12], in the data set on Mus musculus [4], with Mus musculus [8] and with Mus musculus [9] was inactive. The minimal effective dose in the data set with Mus musculus [13] was 100 mg/kg. Further, the Activity result in the data set on Mus musculus [5] and with Mus musculus [6] was “Non-toxic” in each case.

With `O=C(CCCN1C(=O)c2ccccc2C1=O)Nc1ccc(F)cc1`, the outcome with Mus musculus [1], in the data set with Mus musculus [2], with Mus musculus [12], in the data set on Mus musculus [4] and in the data set on Mus musculus [9] was inactive. In addition, the minimal effective dose in the data set on Mus musculus [13] and in the data set with Mus musculus [14] was 300 mg/kg throughout. Also, the Activity entry with Mus musculus [5] and with Mus musculus [6] was “Non-toxic” throughout.

`CCc1ccc(NC(=O)CCCN2C(=O)c3ccccc3C2=O)cc1`: the minimal effective dose with Mus musculus [18] was found to be 100 mg/kg; in the data set on Mus musculus [15], 300 mg/kg; in the data set with Mus musculus [14], 100 mg/kg; in the data set with Mus musculus [16] it was 100 mg/kg; in the data set on Mus musculus [17], 100 mg/kg. Also, the outcome with Mus musculus [3] and in the data set with Mus musculus [12] was inactive. Besides, the Activity result in the data set on Mus musculus [5] and in the data set on Mus musculus [6] was “Non-toxic” in each case.

As to `O=C(CCCN1C(=O)c2ccccc2C1=O)Nc1ccccc1`, the result in the data set with Mus musculus [1], in the data set with Mus musculus [2], in the data set with Mus musculus [3], in the data set on Mus musculus [4], in the data set with Mus musculus [8] and in the data set with Mus musculus [9] was inactive. The MTD at 4 h in data set [11] was 100 mg/kg. For the same compound, the Activity entry with Mus musculus [5] is “Non-toxic”. The minimal effective dose with Mus musculus [7] stood at 300 mg/kg.

On to `O=C(CCCN1C(=O)c2ccccc2C1=O)Nc1ccc(Cl)cc1Cl`, for which the outcome in the data set on Mus musculus [1], in the data set on Mus musculus [2], in the data set with Mus musculus [3], in the data set on Mus musculus [12], in the data set with Mus musculus [4] and in the data set with Mus musculus [9] was inactive. Also, the minimal effective dose in the data set with Mus musculus [13] and in the data set with Mus musculus [14] was 300 mg/kg throughout. Further, the Activity entry in the data set on Mus musculus [5] and in the data set with Mus musculus [6] was “Non-toxic” in each case.

Take `O=C1NC(=O)C(c2ccccc2)(c2ccccc2)N1`: the result in the data set on Mus musculus [1], in the data set with Mus musculus [2], in the data set on Mus musculus [3], in the data set with Mus musculus [12], in the data set with Mus musculus [4] and in the data set on Mus musculus [8] was inactive. For the same compound, the result in the data set with Mus musculus [9] was inactive.

On to `COc1ccc(NC(=O)CCCN2C(=O)c3ccccc3C2=O)cc1`, for which the outcome in the data set on Mus musculus [1], in the data set with Mus musculus [2], in the data set on Mus musculus [3], in the data set with Mus musculus [12], in the data set with Mus musculus [4] and in the data set on Mus musculus [9] was inactive. Further, in the data set with Mus musculus [14], the minimal effective dose is 300 mg/kg. In addition, the Activity entry in the data set with Mus musculus [5] and with Mus musculus [6] was “Non-toxic” each time.

For `O=C(CCCN1C(=O)c2ccccc2C1=O)Nc1ccc(Cl)cc1I`, in [10], the MTD at 0.5 h was 300 mg/kg. The outcome in the data set on Mus musculus [1], in the data set on Mus musculus [2], in the data set with Mus musculus [12], with Mus musculus [4] and with Mus musculus [9] was inactive. For the same compound, the minimal effective dose with Mus musculus [13] worked out at 100 mg/kg; in the data set with Mus musculus [14], 300 mg/kg. For the same compound, the Activity entry with Mus musculus [6] is “Non-toxic”.

For `O=C(CCCN1C(=O)c2ccccc2C1=O)Nc1ccc(Cl)cc1`, the minimal effective dose in the data set with Mus musculus [18] was 300 mg/kg; with Mus musculus [13] it was 100 mg/kg; in the data set with Mus musculus [14], 300 mg/kg. The result in the data set with Mus musculus [2], in the data set on Mus musculus [12], in the data set with Mus musculus [4] and in the data set with Mus musculus [9] was inactive. For the same compound, the Activity result in the data set with Mus musculus [5] and with Mus musculus [6] was “Non-toxic” each time.

As for `Cc1ccc(NC(=O)CCCN2C(=O)c3ccccc3C2=O)cc1`, the outcome in the data set with Mus musculus [1], in the data set on Mus musculus [3], in the data set on Mus musculus [12], with Mus musculus [4] and in the data set on Mus musculus [9] was inactive. Moreover, the minimal effective dose worked out at 100 mg/kg with Mus musculus [15] and 300 mg/kg in the data set with Mus musculus [14]. The Activity result with Mus musculus [5] and in the data set with Mus musculus [6] was “Non-toxic” throughout.

On to `O=C(CCCN1C(=O)c2ccccc2C1=O)Nc1ccc(Br)cc1`, for which, in [10], the MTD at 0.5 h was determined as 100 mg/kg. In addition, the outcome with Mus musculus [1], in the data set with Mus musculus [2], in the data set with Mus musculus [3] and with Mus musculus [12] was inactive. The minimal effective dose in the data set on Mus musculus [14] is 100 mg/kg; with Mus musculus [16] it was 300 mg/kg; in the data set on Mus musculus [17], 30 mg/kg. In addition, the Activity entry with Mus musculus [6] was “Non-toxic”.

Values taken from ChEMBL document CHEMBL3044713, “Synthesis, characterization, and pharmacological evaluation of new GABA analogs as potent anticonvulsant agents” (Med Chem Res, 2012).
